What was measured:
[1] = test system: gastric acid secretion; experiment: gastric antisecretory activity in pentagastrin-stimulated Heidenhain pouch dogs; assay type: in vivo; details: conscious Heidenhain pouch dogs, pentagastrin infusion, drug given intravenously; for inhibition in vivo at up to 10 mg/kg: Canis lupus familiaris, iv, doses of 10 mg/kg or less, lowest acid output after drug vs mean output before drug; for inhibition of acid: dosage of 1 mg/kg
Source text: The activity of the compounds of the present invention as antisecretory agents and histamine-H2 antagonists may be determined by standard pharmacological tests, including for example (1) measuring their ability to antagonize the actions of histamine which are not blocked by an antihistamine such as mepyramine and (2) measuring their ability to inhibit gastric acid secretion in the stomachs of Heidenhain pouch dogs that had previously been treated with pentagastrin in order to stimulate the secretion of gastric acid.
The gastric antisecretory activity of compounds of the present invention was determined in overnight fasted, conscious Heidenhain pouch dogs. Pentagastrin (Peptavlon-Ayerst) was used to stimulate acid output by continuous infusion into a superficial leg vein at doses earlier determined to stimulate near maximal acid output from the gastric pouch. Gastric juice was collected at 30 minute intervals following the start of a pentagastrin infusion and measured to the nearest 0.1 ml. Ten collections were taken for each dog during an experiment. Acid concentration was determined by titrating 1.0 ml of gastric juice to pH 7.4 with 0.1N sodium hydroxide using an Autoburette and a glass electrode pH meter (Radiometer).
[…] Gastric acid . antisecxetory effects were calculated by comparing the lowest acid output after drug administration with the mean acid output immediately before drug.

[2] = target: T1, H2-receptor (Cavia porcellus, UniProt P47747); experiment: histamine-H2 antagonist activity in isolated guinea pig right atria (histamine dose-response, dose-ratios, pA2); assay type: cell-based, Guinea pigs; details: antagonism of histamine-stimulated atrial rate, Krebs-Henseleit buffer pH 7.4, 32°
T1 construct: from tissue; host or cells: isolated guinea pig right atria
Experimental: The histamine-H2 antagonist activity of compounds of the present invention was determined by the following procedure: • Guinea pigs are killed rapidly with a blow to the head, the heart removed and the right atria dissected free. […] Individual atrial contractions are followed with a force-displacement transducer connected to a cardiotachometer and Grass polygraph recorder. After obtaining a dose-response curve to histamine, the bath containing each atrium is flushed several times with fresh buffer and the atria re-equilibrated to basal rates. Following the return to basal rate, test compounds are added at selected final concentrations and the histamine dose-response curve is again determined in the presence of antagonist. Results are-expressed as dose-ratios, the ratio of histamine concentrations required to produce one-half of maximal stimulation in the presence and absence of antagonist, and the apparent dissociation constant of the H2-receptor antagonist pA2 is determined.

T1 sequence (P47747 whole entry): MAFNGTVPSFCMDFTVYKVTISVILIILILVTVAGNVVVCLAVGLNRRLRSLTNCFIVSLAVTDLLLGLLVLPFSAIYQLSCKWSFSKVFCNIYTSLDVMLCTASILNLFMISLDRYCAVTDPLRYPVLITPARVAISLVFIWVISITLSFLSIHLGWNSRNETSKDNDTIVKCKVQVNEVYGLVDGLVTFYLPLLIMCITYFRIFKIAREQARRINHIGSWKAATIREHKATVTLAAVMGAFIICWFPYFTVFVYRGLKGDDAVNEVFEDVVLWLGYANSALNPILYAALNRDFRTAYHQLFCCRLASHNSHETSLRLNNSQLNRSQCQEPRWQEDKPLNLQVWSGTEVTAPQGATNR

Structure (SMILES)	inhibition in vivo at up to 10 mg/kg [1] [%]	Kb [2] [nM]	inhibition of acid [1]
CNc1cc(-c2nc(C)n[nH]2)ccn1 [Example 2, 3'-Methyl-5'-(2-methylamino-4-pyridyl)-1',2',4'-triazole]	> 50		
CCNc1cc(-c2nc(C)n[nH]2)ccn1 [Example 3, 3'-Methyl-5'-(2-ethylamino-4-pyridyl)-1',2',4'-triazole]	> 50	≤ 1000	
CCNc1cc(-c2nc(CC)n[nH]2)ccn1 [Example 6, 3'-Ethyl-5'-(2-ethylamino-4-pyridyl)-1',2',4'-triazole hemi-hydrate]		≤ 1000	
CCNc1cc(-c2nc(CO)n[nH]2)ccn1 [Example 8, 3'-Hydroxymethyl-5'-(2-ethylamino-4-pyridyl)-l',2',4'-triazole]	> 50		
CCNc1cc(-c2nc(CCNC(=O)C=Cc3cnc(C)s3)n[nH]2)ccn1 [Example 12, N-[3-(2-methyl-5-thiazolyl)acryloyl]-2-[3'-(5'-(2-ethylamino-4-pyridyl)-1',2',4'-triazolyl)]ethylamine]	> 50	≤ 1000	greater than 50%
CCNc1cc(-c2nc(CCNC(=O)COc3ccccc3)n[nH]2)ccn1 [Example 17, N-Phenoxyacetyl-2-(3'-(5'-(2-ethylamino-4-pyridyl)-1',2',4'-triazolyl))'ethylamine hemihydrate]	> 50		
CCNc1cc(-c2n[nH]c(CCNC(=O)CCc3ccccc3)n2)ccn1 [Example 20, N-(3-Phenylpropionyl)-2-(3'-(5'-(2-ethylamino-4-pyridyl)-1',2',4'-triazolyl))ethylamine]	> 50		
CCNc1cc(-c2n[nH]c(CCNC(=O)COc3cccnc3)n2)ccn1 [Example 21, N-(3-Pyridyloxyacetyl)-2-(3'-(5'-(2-ethylamino-4-pyridyl)-1',2',4'-triazolyl))ethylamine bishydrate]	> 50		
CCNc1cc(-c2n[nH]c(CCNC(=O)c3ccc(O)nc3)n2)ccn1 [Example 24, N-(6-Hydroxynicotinoyl)-2-(3'-(5'-(2-ethylamino-4-pyridyl)-1',2',4'-triazolyl))ethylamine monohydrate]	> 50		
CCNc1cc(-c2n[nH]c(CCNC(=O)c3cccc(OC)c3)n2)ccn1 [Example 26, N-(3-Methoxybenzoyl)-2-(3'-(5'-(2-ethylamino-4-pyridyl)-1',2',4'-triazolyl))ethylamine]	> 50		
CCNc1cc(C(=O)NCCc2nc(-c3ccnc(NCC)c3)n[nH]2)ccn1 [Example 27, N-(2-Ethylaminoisonicotinoyl)-2-(3'-(5'-(2-ethylamino-4-pyridyl)-1',2',4'-triazolyl))ethylamine]	> 50		
CCNc1cc(-c2n[nH]c(CCNC(=O)c3ccc(CN(C)C)o3)n2)ccn1 [Example 28]		≤ 1000	
CCNc1cc(-c2n[nH]c(CCNC(=O)c3csc(N=C(N)N)n3)n2)ccn1 [Example 29]		≤ 1000	
CCNc1cc(-c2n[nH]c(CCNC(=O)CCc3cccnc3)n2)ccn1 [Example 31, N-(3-Pyridylpropionoyl)-2-(3'-(5'-(2-ethylamino-4-pyridyl)-1',2',4'-triazolyl))ethylamine]	> 50	≤ 1000	
CCNc1cc(-c2n[nH]c(CCNC(=O)c3cccnc3)n2)ccn1 [Example 34, N-Nicotinoyl-2-(3'-(5'-(2-ethylamino-4-pyridyl)-1',2',4'-triazolyl))ethylamine]		≤ 1000	
CCNc1cc(-c2n[nH]c(CCNC(=O)c3ccncc3)n2)ccn1 [Example 35, N-(Isonicotinoyl)-2-(3'-(5'-(2-ethylamino-4-pyridyl)-1',2',4'-triazolyl))ethylamine]	> 50		
CCNc1cc(-c2n[nH]c(CCNC(N)=O)n2)ccn1 [Example 36, N-(2-(3'-(5'-(2-Ethylamino-4-pyridyl)-1',2',4'-triazolyl))-ethyl)urea hydrate]	> 50		
CCNc1cc(-c2n[nH]c(CCNC(=NC#N)NC)n2)ccn1 [Example 39, N-Cyano-N'-(2-(3'-(5'-(2-ethylamino-4-pyridyl)-1',2',4'-triazolyl))ethyl)-N"-methylguanidine]		≤ 1000	
CCNc1cc(-c2n[nH]c(CCNC(=S)NC)n2)ccn1 [Example 41, N'-(2-(3'-(5'-(2-Ethylamino-4-pyridyl)-1',2',4'-triazolyl))-ethyl)-N'-methylthiourea]		≤ 1000	greater than 50%

Reference: EP0074229A1, “Triazole gastric anti-secretory agents” (PFIZER INC., priority 1981, dated 1983)
